Test results: US20240285599A1, “Mature-Hepatocyte Transdifferentiation Suppressing Composition” (OSAKA UNIVERSITY, priority 2021, published 2024)

Test system: HuCCT1 cell xenograft
Assay: HuCCT1 xenograft in NOG mouse, oral NIKSMI
Assay type: in vivo
Settings: twice a day, 200 mg/kg
Experimental: A histopathological slide was deparaffinized with xylene and ethanol. HE staining was performed with hematoxylin and eosin. In immunostaining, antigen activation was performed by heating in Target Retrieval Solution (Dako, USA), followed by blocking with bovine serum albumin and a reaction through use of a primary antibody at 4° C. overnight. A frozen section was dried at room temperature, and was blocked with BSA (Nacalai Tesque, Inc., Japan), followed by a reaction through use of a primary antibody in VECTASTAIN ABC Rabbit IgG Kit (Vector Laboratories, Inc., USA). DAB Substrate Kit (Vector Laboratories, Inc., USA) was used in a staining reaction. […] The number of Ki67-positive cells in a tumor was counted with ImageJ (Fiji). The immunostaining score of TRAF3 or NIK was calculated by multiplying a staining intensity (of from 0 to 3) by a stained area (%). Human ICC patients were grouped into two groups on the basis of the median immunostaining score of TRAF3 or NIK, and were evaluated for their disease-free survival (DFS) or overall survival (OS).
To generate a xenograft tumor, 5×10^6 HuCCT1 cells were mixed with Matrigel at a ratio of 1:1, and the mixture was subcutaneously injected into each of NOG mice. […] During the period, the diameters of the tumors were measured every 3 days, and the tumor sizes were each calculated by using the following equation. […]

COc1cc(C(N)=O)nc(-c2cccc(C#C[C@]3(O)CCN(C)C3=O)c2)c1 [NIKSMI, (R)-6-(3-((3-hydroxy-1-methyl-2-oxopyrrolidin-3-yl)ethynyl)phenyl)-4-methoxypicolinamide]
number of Ki67-positive cells in tumors versus vehicle-administered tumors (NOG mouse HuCCT1 xenograft, 14 days, FIG. 23B): significantly lower | growth of xenografts derived from the HuCCT1 cells (tumor size) (NOG mouse, 14 days from day 28 after transplantation, FIG. 23A): significantly suppressed
